Data set [1] can be described thus: Stability to decomposition: storage at 90° C. for one week.
A short description of data set [2]: Thermal analysis and polymorphic stability (DSC, TGA). Type of data set: physicochemical. As to conditions: for DSC: Differential Scanning Calorimetry; for TGA: Thermogravimetric Analysis. The method, then:
Polymorphism refers to the ability of a solid material to exist in more than one crystal structure or solid form.
Upon mild heating (about 50° C. to 60° C.), the water content is reduced which would make these salts and the free base form extremely difficult to handle and to process during production and formulation. In contrast the hydrate of the mono mesylate salt is thermally stable and polymorphic stable at much higher temperatures of considerably above 100° C. as judged by TGA.
Moreover, exactly one mol equivalent water is incorporated into the crystal structure wherein the hydrogen atoms of the water molecule form hydrogen bridges with oxygen atoms of two different mesylate molecules. This well-defined position in the crystal lattice (see FIG. 3) is verified by the fact that water is released from the crystal only at high temperature, starting at 160° C.
A general note: Differential scanning calorimetry records heat flow against a reference as temperature is scanned.

The nature of data set [3]: Crystallinity by X-ray diffraction, microscopy. Type of data set: physicochemical. As to conditions: for Crystallinity: X-ray diffraction, microscopy.
The nature of data set [4]: Stability to dissociation: stirring for one week at room temperature.
Data set [5] is described as follows: Water solubility, solubility screening. The conditions noted are these: for Water solubility: Solubility screening.
Data set [6] in a line: Exposure in repeated dose 13-week toxicity study (free base). The conditions noted are these: rat, in vivo, rats; for AUC(0-t): read-out: AUC(0-24).
Procedure: The exposure of rats to N-[5-(aminosulfonyl)-4-methyl-1,3-thiazol-2-yl]-N-methyl-2-[4-(2-pyridinyl)phenyl]acetamide in a repeated dose 13-week toxicity study performed with the free base N-[5-(aminosulfonyl)-4-methyl-1,3-thiazol-2-yl]-N-methyl-2-[4-(2-pyridinyl)phenyl]acetamide (free base) was compared to the exposures observed in a 26-week repeated dose toxicity study performed with the mesylate monohydrate. In both studies, the test items were administered as 0.5% (w/v) tylose suspensions, and the concentrations were adjusted to the equivalents of free base N-[5-(aminosulfonyl)-4-methyl-1,3-thiazol-2-yl]-N-methyl-2-[4-(2-pyridinyl)phenyl]acetamide.
[7] abbreviates: female, 10 mg/kg/day, F, 10 mg/kg/day, day 1, 13-week toxicity study.
Setting [8] is: female, 50 mg/kg/day, F, 50 mg/kg/day, day 1, 13-week toxicity study.
Where [9] appears, read: female, 250 mg/kg/day, F, 250 mg/kg/day, day 1, 13-week toxicity study.
Where [10] appears, read: male, 10 mg/kg/day, M, 10 mg/kg/day, day 1, 13-week toxicity study.
Setting [11] is: male, 50 mg/kg/day, M, 50 mg/kg/day, day 1, 13-week toxicity study.
Where [12] appears, read: male, 250 mg/kg/day, M, 250 mg/kg/day, day 1, 13-week toxicity study.

Values after ≈ are worked out from the molar mass of the structure shown. Where two headings read alike, the source gives them in different places.

With `Cc1nc(N(C)C(=O)Cc2ccc(-c3ccccn3)cc2)sc1S(N)(=O)=O.Cl` [1xHCl], the Stability to decomposition entry in data set [1] is “++”. Moreover, in data set [2], the “Thermal and polymorphic stability of hydrates (in words)” value (from here on “Thermal and polymorphic stability”) is “low thermal and low polymorphic stability”; the “Thermal stability of hydrate” value was “labile”; the DSC result is given as “loss of water before melting”; the TGA is listed as 2.1%. For the same compound, the “Crystallinity of the hydrate during storage” value in data set [3] (during storage) is “decrease of crystallinity”. Moreover, the Stability to dissociation result in data set [4] is on record as “++”. The compound also gave a Water solubility in data set [5] of 39.4 mg/100 mL.
As for `Cc1ccc(S(=O)(=O)O)cc1.Cc1nc(N(C)C(=O)Cc2ccc(-c3ccccn3)cc2)sc1S(N)(=O)=O` [1xTsOH], the Stability to decomposition entry in data set [1] is reported as “−”. Further, in data set [2], the “Thermal stability of hydrate” value is “labile”, the DSC entry is “loss of water before melting” and the TGA came to 5.9%. Moreover, the “Thermal and polymorphic stability” value in data set [2] (listed as monotosylate) is reported as “low thermal stability”. For the same compound, the “Thermal and polymorphic stability” value in data set [2] (listed as tosylate) was “low thermal and low polymorphic stability”. In addition, the Crystallinity result in data set [3] is “+”. For the same compound, the Stability to dissociation result in data set [4] is recorded as “++”. In data set [5], the Water solubility came out at 50 mg/100 mL.
What is called Cmax is the peak of the concentration-time curve. The term solubility denotes the dissolved amount per volume that the medium holds. High values mean a readily soluble substance, low ones a poorly soluble substance. For the compound `Cc1nc(N(C)C(=O)Cc2ccc(-c3ccccn3)cc2)sc1S(N)(=O)=O` [Free base, N-[5-(aminosulfonyl)-4-methyl-1,3-thiazol-2-yl]-N-methyl-2-[4-(2-pyridinyl)phenyl]acetamide], the Stability to decomposition result in data set [1] is recorded as “++”. The Cmax in data set [6] (setting [7]) is 15300 ng/mL; in data set [6] (female, 10 mg/kg/day, F, week 13, 13-week toxicity study), 25800 ng/mL; in data set [6] (setting [8]) it was 35300 ng/mL; in data set [6] (female, 50 mg/kg/day, F, week 13, 13-week toxicity study), 40500 ng/mL; in data set [6] (setting [9]), 68900 ng/mL; in data set [6] (female, 250 mg/kg/day, F, week 13, 13-week toxicity study), 83000 ng/mL. Moreover, the Cmax in data set [6] (setting [10]) came to 13300 ng/mL; in data set [6] (male, 10 mg/kg/day, M, week 13, 13-week toxicity study) it was 15000 ng/mL; in data set [6] (setting [11]), 30600 ng/mL; in data set [6] (male, 50 mg/kg/day, M, week 13, 13-week toxicity study), 30000 ng/mL; in data set [6] (setting [12]), 53900 ng/mL; in data set [6] (male, 250 mg/kg/day, M, week 13, 13-week toxicity study), 62800 ng/mL. The AUC(0-t) in data set [6] (setting [7]) was found to be 159 µg·h/mL; in data set [6] (female, 10 mg/kg/day, F, 10 mg/kg/day, week 13, 13-week toxicity study), 211 µg·h/mL; in data set [6] (setting [8]), 409 µg·h/mL; in data set [6] (female, 50 mg/kg/day, F, 50 mg/kg/day, week 13, 13-week toxicity study), 455 µg·h/mL; in data set [6] (setting [9]), 966 µg·h/mL; in data set [6] (female, 250 mg/kg/day, F, 250 mg/kg/day, week 13, 13-week toxicity study), 1170 µg·h/mL. Also, the AUC(0-t) in data set [6] (setting [10]) stood at 87.9 µg·h/mL; in data set [6] (male, 10 mg/kg/day, M, 10 mg/kg/day, week 13, 13-week toxicity study), 133 µg·h/mL; in data set [6] (setting [11]), 248 µg·h/mL; in data set [6] (male, 50 mg/kg/day, M, 50 mg/kg/day, week 13, 13-week toxicity study), 332 µg·h/mL; in data set [6] (setting [12]), 567 µg·h/mL; in data set [6] (male, 250 mg/kg/day, M, 250 mg/kg/day, week 13, 13-week toxicity study) it was 661 µg·h/mL. In addition, the “Thermal and polymorphic stability” value in data set [2] is “low thermal stability”; in data set [2] (listed as free base form) it was “low thermal and low polymorphic stability”. Further, the “Thermal stability of hydrate” value in data set [2] was “labile”. Further, the DSC result in data set [2] was “loss of water before melting”. Further, the TGA in data set [2] amounted to 8.8%. Also, the Crystallinity entry in data set [3] is on record as “+”. The compound also gave a solubility in data set [5] (water) of 2 µg/mL (≈ 4.97 µM).

(Values after patent US9340535B2, “N-[5-(Aminosulfony1)-4-methyl-1,3-thiazol-2-yl]-N-methyl-2-[4-(2-pyridinyl)phenyl]acetamide mesylate monohydrate” (AiCuris GmbH & Co. KG, priority 2011, dated 2016).)
